Data from ChEMBL document CHEMBL4507291 (2021).

Legend:
[1] = system: Proto-oncogene tyrosine-protein kinase receptor Ret (Homo sapiens), P07949 [V804M]
[2] = system: Phosphatidylinositol 4,5-bisphosphate 3-kinase catalytic subunit alpha isoform (Homo sapiens), P42336 [I800L]
[3] = target: Vascular endothelial growth factor receptor 2 (Homo sapiens) (UniProt P35968)
[4] = target: Wee1-like protein kinase 2 (Homo sapiens) (UniProt P0C1S8)
[5] = target: Ribosomal protein S6 kinase alpha-4 (Homo sapiens) (UniProt O75676)
[6] = system: Phosphatidylinositol 4,5-bisphosphate 3-kinase catalytic subunit alpha isoform (Homo sapiens), P42336 [H1047Y]
[7] = target: Cyclin-dependent kinase 16 (Homo sapiens) (UniProt Q00536)
[8] = target: Macrophage-stimulating protein receptor (Homo sapiens) (UniProt Q04912)
[9] = target: Serine/threonine-protein kinase 35 (Homo sapiens) (UniProt Q8TDR2)
[10] = target: Ribosomal protein S6 kinase alpha-4 (Homo sapiens) (UniProt O75676); remark: listed apart in the source
[11] = system: Epidermal growth factor receptor (Homo sapiens), P00533 [UNDEFINED MUTATION]
[12] = target: T1, Alpha-1A adrenergic receptor (Homo sapiens) (UniProt P35348); conditions: Compound concentration 10.0 uM
T1 sequence (whole entry): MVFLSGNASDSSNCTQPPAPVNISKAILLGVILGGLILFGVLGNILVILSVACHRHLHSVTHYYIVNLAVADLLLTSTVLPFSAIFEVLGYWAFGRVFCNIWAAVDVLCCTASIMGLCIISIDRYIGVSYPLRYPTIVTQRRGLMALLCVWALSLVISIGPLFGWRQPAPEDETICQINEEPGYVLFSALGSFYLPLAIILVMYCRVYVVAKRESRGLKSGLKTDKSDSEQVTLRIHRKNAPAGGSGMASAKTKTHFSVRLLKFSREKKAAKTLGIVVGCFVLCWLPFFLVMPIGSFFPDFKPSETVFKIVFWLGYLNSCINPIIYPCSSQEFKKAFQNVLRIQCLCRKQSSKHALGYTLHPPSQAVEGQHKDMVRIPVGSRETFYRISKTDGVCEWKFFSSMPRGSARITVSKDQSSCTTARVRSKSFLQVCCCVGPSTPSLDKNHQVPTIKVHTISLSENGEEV

[13] = target: Hormonally up-regulated neu tumor-associated kinase (Homo sapiens) (UniProt P57058)
[14] = target: AP2-associated protein kinase 1 (Homo sapiens) (UniProt Q2M2I8)
[15] = system: Tyrosine-protein kinase ABL1 (Homo sapiens), P00519 [Q252H]
[16] = target: Mitogen-activated protein kinase kinase kinase 19 (Homo sapiens) (UniProt Q56UN5)
[17] = target: Myosin light chain kinase, smooth muscle (Homo sapiens) (UniProt Q15746)
[18] = target: G protein-coupled receptor kinase 4 (Homo sapiens) (UniProt P32298)
[19] = target: Serine/threonine-protein kinase B-raf (Homo sapiens) (UniProt P15056)
[20] = target: GABA-A receptor; anion channel (Rattus norvegicus) (UniProt O09028+P15431+P18506+P18508+P19969+P20236+P23574+P23576+P28471+P28473+P30191+P62813+P63079+P63138+Q91ZM7+Q9ES14); conditions: Compound concentration 10.0 uM
[21] = target: T2, Muscarinic acetylcholine receptor M5 (Homo sapiens) (UniProt P08912); conditions: Compound concentration 10.0 uM
T2 sequence (whole entry): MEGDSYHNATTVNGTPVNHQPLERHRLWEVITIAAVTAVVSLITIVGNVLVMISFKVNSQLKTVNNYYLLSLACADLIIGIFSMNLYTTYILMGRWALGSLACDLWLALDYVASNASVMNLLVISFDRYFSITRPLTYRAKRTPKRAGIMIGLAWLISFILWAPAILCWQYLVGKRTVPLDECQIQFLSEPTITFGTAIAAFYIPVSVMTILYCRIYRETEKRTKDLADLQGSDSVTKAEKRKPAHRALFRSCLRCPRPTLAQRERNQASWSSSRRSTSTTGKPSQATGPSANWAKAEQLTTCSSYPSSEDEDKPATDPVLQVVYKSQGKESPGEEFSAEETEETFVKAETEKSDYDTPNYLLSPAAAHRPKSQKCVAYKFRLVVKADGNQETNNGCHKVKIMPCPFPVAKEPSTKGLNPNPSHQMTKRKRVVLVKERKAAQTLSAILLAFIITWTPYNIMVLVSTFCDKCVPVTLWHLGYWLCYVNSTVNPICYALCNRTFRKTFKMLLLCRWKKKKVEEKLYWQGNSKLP

[22] = target: Dual specificity tyrosine-phosphorylation-regulated kinase 1B (Homo sapiens) (UniProt Q9Y463)
[23] = target: Non-receptor tyrosine-protein kinase TNK1 (Homo sapiens) (UniProt Q13470)
[24] = target: Serine/threonine-protein kinase PAK 1 (Homo sapiens) (UniProt Q13153)
[25] = target: Interleukin-1 receptor-associated kinase 4 (Homo sapiens) (UniProt Q9NWZ3)
[26] = target: Serine/threonine-protein kinase PLK3 (Homo sapiens) (UniProt Q9H4B4)
[27] = target: Serine/threonine-protein kinase Nek3 (Homo sapiens) (UniProt P51956)
[28] = target: Calcium/calmodulin-dependent protein kinase type 1G (Homo sapiens) (UniProt Q96NX5)
[29] = target: Protein-tyrosine kinase 2-beta (Homo sapiens) (UniProt Q14289)
[30] = target: Serine/threonine-protein kinase SIK2 (Homo sapiens) (UniProt Q9H0K1)
[31] = Compound concentration 100.0 nM
[32] = Compound concentration 1000.0 nM

Chain of Ribosomal protein S6 kinase alpha-4 (Homo sapiens) (O75676 whole entry, looked up, canonical isoform): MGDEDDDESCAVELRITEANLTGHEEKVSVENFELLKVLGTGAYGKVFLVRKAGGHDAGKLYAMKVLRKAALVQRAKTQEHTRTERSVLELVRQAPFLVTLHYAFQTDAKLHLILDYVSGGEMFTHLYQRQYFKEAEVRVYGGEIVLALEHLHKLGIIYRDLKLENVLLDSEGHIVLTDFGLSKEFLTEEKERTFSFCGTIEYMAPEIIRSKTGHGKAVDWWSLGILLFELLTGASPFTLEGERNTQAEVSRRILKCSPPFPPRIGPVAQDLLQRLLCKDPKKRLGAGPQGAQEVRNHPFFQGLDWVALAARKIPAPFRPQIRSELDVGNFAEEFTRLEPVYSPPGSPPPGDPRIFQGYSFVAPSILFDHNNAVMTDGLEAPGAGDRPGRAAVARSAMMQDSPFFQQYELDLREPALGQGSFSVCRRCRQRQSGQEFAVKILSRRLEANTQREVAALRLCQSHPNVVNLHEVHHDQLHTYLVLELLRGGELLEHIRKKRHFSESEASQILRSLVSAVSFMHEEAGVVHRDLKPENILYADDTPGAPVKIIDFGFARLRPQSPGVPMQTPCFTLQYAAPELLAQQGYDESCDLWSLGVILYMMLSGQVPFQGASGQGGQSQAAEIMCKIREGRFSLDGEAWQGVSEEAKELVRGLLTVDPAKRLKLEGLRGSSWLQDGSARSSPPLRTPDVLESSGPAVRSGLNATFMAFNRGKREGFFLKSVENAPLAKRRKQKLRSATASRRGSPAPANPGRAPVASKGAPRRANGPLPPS
Chain of Non-receptor tyrosine-protein kinase TNK1 (Homo sapiens) (Q13470 whole entry): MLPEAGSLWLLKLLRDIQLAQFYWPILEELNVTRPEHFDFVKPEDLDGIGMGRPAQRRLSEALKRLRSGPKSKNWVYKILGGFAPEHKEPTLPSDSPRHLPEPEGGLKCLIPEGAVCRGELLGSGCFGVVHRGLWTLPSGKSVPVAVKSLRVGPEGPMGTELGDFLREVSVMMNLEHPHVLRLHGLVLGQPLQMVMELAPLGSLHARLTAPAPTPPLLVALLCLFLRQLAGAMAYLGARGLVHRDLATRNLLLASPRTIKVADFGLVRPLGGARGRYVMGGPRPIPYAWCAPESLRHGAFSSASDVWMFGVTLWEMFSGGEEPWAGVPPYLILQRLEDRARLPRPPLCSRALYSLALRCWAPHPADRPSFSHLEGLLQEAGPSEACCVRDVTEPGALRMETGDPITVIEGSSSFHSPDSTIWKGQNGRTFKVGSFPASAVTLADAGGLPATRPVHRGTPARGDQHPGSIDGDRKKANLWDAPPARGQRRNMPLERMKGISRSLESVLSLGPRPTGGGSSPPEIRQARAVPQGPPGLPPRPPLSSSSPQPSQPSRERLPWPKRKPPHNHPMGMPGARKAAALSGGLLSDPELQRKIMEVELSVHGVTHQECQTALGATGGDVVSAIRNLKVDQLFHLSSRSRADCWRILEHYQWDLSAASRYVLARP
Chain of Serine/threonine-protein kinase PAK 1 (Homo sapiens) (Q13153 whole entry): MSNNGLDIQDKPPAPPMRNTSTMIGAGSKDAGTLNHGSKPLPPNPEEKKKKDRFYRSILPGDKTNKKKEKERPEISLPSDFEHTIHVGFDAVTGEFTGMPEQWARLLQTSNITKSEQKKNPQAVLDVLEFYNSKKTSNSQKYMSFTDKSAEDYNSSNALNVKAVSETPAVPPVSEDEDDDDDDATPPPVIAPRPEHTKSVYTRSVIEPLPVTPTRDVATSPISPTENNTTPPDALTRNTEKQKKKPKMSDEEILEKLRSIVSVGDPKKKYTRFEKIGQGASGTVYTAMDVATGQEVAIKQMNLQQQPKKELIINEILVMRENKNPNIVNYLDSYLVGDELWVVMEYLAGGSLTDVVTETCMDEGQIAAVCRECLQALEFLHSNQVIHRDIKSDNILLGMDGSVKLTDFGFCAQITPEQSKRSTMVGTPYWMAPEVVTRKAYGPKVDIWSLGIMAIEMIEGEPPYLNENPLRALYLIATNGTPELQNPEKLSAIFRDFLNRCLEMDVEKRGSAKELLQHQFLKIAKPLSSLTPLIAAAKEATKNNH
Chain of Cyclin-dependent kinase 16 (Homo sapiens) (Q00536 whole entry): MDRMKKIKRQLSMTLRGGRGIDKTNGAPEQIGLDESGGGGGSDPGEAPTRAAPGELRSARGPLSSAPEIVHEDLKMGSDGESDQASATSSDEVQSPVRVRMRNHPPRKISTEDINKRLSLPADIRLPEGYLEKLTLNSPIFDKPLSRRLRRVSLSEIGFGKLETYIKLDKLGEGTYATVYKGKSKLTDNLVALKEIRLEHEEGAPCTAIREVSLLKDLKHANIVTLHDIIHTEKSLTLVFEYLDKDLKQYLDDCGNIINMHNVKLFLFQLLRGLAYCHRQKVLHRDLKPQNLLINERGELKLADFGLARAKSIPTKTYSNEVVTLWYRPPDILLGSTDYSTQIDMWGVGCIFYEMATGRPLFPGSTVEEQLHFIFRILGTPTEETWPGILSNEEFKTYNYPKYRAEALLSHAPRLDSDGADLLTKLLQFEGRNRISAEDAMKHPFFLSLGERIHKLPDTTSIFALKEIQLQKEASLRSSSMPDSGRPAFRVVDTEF
Chain of Protein-tyrosine kinase 2-beta (Homo sapiens) (Q14289 whole entry, looked up): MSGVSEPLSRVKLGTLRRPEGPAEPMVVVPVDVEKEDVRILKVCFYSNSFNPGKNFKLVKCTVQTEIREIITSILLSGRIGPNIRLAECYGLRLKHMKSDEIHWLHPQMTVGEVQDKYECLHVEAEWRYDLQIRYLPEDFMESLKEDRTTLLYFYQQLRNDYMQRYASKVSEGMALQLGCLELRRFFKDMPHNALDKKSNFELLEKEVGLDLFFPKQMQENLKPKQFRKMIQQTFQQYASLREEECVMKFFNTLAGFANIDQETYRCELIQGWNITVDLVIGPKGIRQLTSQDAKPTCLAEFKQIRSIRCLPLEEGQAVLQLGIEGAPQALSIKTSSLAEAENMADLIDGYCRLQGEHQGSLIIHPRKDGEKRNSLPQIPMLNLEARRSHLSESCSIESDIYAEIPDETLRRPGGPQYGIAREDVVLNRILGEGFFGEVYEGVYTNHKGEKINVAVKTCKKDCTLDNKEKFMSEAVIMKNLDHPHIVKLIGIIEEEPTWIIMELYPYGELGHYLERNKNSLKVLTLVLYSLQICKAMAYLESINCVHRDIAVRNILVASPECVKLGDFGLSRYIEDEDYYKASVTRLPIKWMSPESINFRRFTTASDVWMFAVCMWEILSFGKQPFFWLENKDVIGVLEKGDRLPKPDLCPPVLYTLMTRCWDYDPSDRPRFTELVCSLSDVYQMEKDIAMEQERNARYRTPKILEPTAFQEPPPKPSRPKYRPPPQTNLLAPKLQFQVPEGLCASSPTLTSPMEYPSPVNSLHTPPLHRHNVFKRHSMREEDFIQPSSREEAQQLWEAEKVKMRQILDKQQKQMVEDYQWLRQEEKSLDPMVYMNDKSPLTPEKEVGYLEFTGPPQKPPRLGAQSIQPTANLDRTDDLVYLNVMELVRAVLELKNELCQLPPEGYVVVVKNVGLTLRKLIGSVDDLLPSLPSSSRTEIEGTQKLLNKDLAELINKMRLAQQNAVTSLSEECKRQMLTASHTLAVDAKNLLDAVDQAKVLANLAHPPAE
Chain of Calcium/calmodulin-dependent protein kinase type 1G (Homo sapiens) (Q96NX5 whole entry): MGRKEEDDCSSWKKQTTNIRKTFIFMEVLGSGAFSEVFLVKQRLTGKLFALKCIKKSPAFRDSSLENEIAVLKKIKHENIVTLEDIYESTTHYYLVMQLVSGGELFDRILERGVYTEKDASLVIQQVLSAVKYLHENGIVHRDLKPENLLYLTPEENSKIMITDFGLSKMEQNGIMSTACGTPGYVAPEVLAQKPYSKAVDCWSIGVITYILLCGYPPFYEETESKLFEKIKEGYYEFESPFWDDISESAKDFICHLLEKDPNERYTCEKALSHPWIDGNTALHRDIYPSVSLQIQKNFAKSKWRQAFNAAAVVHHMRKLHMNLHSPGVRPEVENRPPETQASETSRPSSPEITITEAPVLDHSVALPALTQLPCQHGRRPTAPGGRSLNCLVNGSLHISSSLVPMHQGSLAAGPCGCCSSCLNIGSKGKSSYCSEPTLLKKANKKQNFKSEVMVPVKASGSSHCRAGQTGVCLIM
Chain of Serine/threonine-protein kinase SIK2 (Homo sapiens) (Q9H0K1 whole entry, looked up): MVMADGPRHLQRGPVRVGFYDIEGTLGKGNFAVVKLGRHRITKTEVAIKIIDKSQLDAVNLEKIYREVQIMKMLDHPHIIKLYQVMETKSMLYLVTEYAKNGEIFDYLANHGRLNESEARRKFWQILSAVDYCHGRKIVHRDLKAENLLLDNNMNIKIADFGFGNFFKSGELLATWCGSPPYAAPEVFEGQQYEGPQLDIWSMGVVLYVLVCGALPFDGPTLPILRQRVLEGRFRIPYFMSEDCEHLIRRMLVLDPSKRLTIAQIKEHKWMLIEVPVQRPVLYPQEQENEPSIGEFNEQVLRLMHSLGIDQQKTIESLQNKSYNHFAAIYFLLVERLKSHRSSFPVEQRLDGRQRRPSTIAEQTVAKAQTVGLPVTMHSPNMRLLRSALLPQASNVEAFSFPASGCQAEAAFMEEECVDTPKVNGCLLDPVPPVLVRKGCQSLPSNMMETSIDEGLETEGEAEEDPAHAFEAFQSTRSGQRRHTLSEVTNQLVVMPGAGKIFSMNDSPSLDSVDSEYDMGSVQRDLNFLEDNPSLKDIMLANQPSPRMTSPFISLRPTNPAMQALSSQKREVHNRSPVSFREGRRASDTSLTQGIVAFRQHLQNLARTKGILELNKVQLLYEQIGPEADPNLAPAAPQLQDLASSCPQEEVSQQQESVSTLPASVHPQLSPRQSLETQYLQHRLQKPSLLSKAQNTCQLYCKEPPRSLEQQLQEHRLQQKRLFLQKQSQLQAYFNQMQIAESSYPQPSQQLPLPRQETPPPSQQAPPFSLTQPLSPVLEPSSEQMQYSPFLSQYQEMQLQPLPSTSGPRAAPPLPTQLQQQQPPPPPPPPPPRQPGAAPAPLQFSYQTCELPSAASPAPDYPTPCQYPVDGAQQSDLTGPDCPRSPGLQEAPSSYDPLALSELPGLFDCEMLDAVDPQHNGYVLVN

C[C@@H]1CN(c2cc(-c3n[nH]c4ccc(OC5(C)CC5)cc34)ncn2)C[C@H](C)O1 [MLi-2]
inactive: residual activity [1, 31] 97% | residual activity [2, 31] 87% | residual activity [3, 31] 82% | residual activity [4, 31] 100% | residual activity [5, 31] 75% | residual activity [6, 31] 76% | residual activity [7, 31] 85% | residual activity [8, 31] 100% | residual activity [9, 31] 85% | residual activity [10, 31] 100% | residual activity [11, 31] 73% | inhibition [12] 3.49% | residual activity [13, 31] 79% | residual activity [14, 31] 100% | residual activity [15, 31] 100% | residual activity [16, 31] 84% | residual activity [17, 31] 56% | residual activity [18, 31] 100% | residual activity [19, 31] 91% | inhibition [20] 7.14% | inhibition [21] 1% | residual activity [22, 31] 93% | residual activity [23, 31] 76% | residual activity [24, 31] 97% | residual activity [25, 31] 90% | residual activity [26, 31] 84% | residual activity [27, 31] 76% | residual activity [28, 31] 91% | residual activity [29, 31] 100% | residual activity [30, 31] 87%

C[C@@H]1CN(c2cc(-c3nn(C)c4ccc(OC5(C)CC5)cc34)ncn2)C[C@H](C)O1 [MLi-2-NC]
inactive: residual activity [1, 32] 100% | residual activity [2, 32] 66% | residual activity [3, 32] 75% | residual activity [4, 32] 96% | residual activity [5, 32] 81% | residual activity [6, 32] 100% | residual activity [7, 32] 87% | residual activity [8, 32] 100% | residual activity [9, 32] 100% | residual activity [10, 32] 100% | residual activity [11, 32] 97% | inhibition [12] -3.6% | residual activity [13, 32] 100% | residual activity [14, 32] 84% | residual activity [15, 32] 93% | residual activity [16, 32] 68% | residual activity [17, 32] 64% | residual activity [18, 32] 96% | residual activity [19, 32] 68% | inhibition [20] 2.92% | inhibition [21] 2.87% | residual activity [22, 32] 100% | residual activity [23, 32] 95% | residual activity [24, 32] 76% | residual activity [25, 32] 76% | residual activity [26, 32] 84% | residual activity [27, 32] 99% | residual activity [28, 32] 82% | residual activity [29, 32] 77% | residual activity [30, 32] 100%
